Source: ChEMBL document CHEMBL1201862, “PubChem BioAssay data set” (2004)
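Assay format: 96-well plates, 48-hour exposure. GI50 marks 50% less growth.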 Calls of active or inactive are those of the source. Cut-off read from the data, not from the text of the source: active = GI50 up to about 1.1 µM and inactive = higher.

Legend:
Experiment in all cases: DTP human tumour cell line panel, 48 h
[1] = tested on: COLO 205
[2] = tested on: OVCAR-4
[3] = tested on: SF-268
[4] = tested on: MOLT-4
[5] = tested on: SNB-19
[6] = tested on: MDA-MB-231
[7] = tested on: NCI-H522
[8] = tested on: EKVX
[9] = tested on: NCI-H23
[10] = tested on: RPMI-8226
[11] = tested on: U-251
[12] = tested on: UO-31
[13] = tested on: TK-10
[14] = tested on: RXF 393
[15] = tested on: A549
[16] = tested on: K562
[17] = tested on: IGROV-1
[18] = tested on: OVCAR-5
[19] = tested on: MDA-N
[20] = tested on: MDA-MB-435
[21] = tested on: HT-29
[22] = tested on: SK-MEL-28
[23] = tested on: BT-549
[24] = tested on: HL-60
[25] = tested on: CCRF-CEM
[26] = tested on: SF-539
[27] = tested on: 786-0
[28] = tested on: OVCAR-3
[29] = tested on: HCC 2998
[30] = tested on: OVCAR-8
[31] = tested on: HCT-116
[32] = tested on: T47D
[33] = tested on: HOP-62
[34] = tested on: Malme-3M
[35] = tested on: SNB-75
[36] = tested on: HOP-92
[37] = tested on: LOX IMVI
[38] = tested on: HCT-15
[39] = tested on: SK-MEL-2
[40] = tested on: SW-620
[41] = tested on: PC-3
[42] = tested on: SK-MEL-5
[43] = tested on: CAKI-1
[44] = tested on: SF-295
[45] = tested on: SR
[46] = tested on: KM12
[47] = tested on: NCI-H226
[48] = tested on: NCI/ADR-RES
[49] = tested on: UACC-257
[50] = tested on: M14
[51] = tested on: Hs-578T
[52] = tested on: SN12C
[53] = tested on: UACC-62
[54] = tested on: A498
[55] = tested on: ACHN
[56] = tested on: DU-145
[57] = tested on: MCF7
[58] = tested on: SK-OV-3
[59] = tested on: NCI-H460

Measured: GI50

COc1cc(/C=C2\C[C@H]3[C@@H]4CC=C5C=C(N6CCCC6)CC[C@]5(C)[C@H]4CC[C@]3(C)C2=O)cc(OC)c1OC
inactive: [1] 2.77 µM | [2] 1.75 µM | [3] 2.23 µM | [4] 2.05 µM | [5] 3.73 µM | [6] 2.4 µM | [7] 1.43 µM | [8] 3.75 µM | [9] 2.52 µM | [10] 2.53 µM | [11] 1.96 µM | [12] 4.83 µM | [13] 6.49 µM | [14] 1.9 µM | [15] 5.24 µM | [16] 3.42 µM | [17] 1.79 µM | [18] 7.1 µM | [19] 2.32 µM | [20] 1.63 µM | [21] 2.95 µM | [22] 4.55 µM | [23] 2.12 µM | [24] 1.13 µM | [25] 2.82 µM | [26] 3.5 µM | [27] 2.84 µM | [28] 1.88 µM | [29] 1.93 µM | [30] 2.16 µM | [31] 1.91 µM | [32] 1.94 µM | [33] 2.48 µM | [34] 2.01 µM | [35] 4.51 µM | [36] 2.21 µM | [37] 1.48 µM | [39] 3.18 µM | [40] 3.91 µM | [41] 3.12 µM | [42] 2.76 µM | [43] 2.84 µM | [44] 2.22 µM | [45] 1.44 µM | [46] 1.91 µM | [47] 13.6 µM | [48] 2.65 µM | [49] 3.1 µM | [50] 2.19 µM | [51] 2.4 µM | [52] 2.85 µM | [53] 2.13 µM | [54] 8.79 µM | [55] 2.32 µM | [56] 3.44 µM | [57] 3.22 µM | [58] 6.89 µM
2.23 µM: [38]

Oc1ccc(Nc2nc(Cl)c3nc[nH]c3n2)cc1
> 100 µM: [38]
inactive: [1] > 100 µM | [2] > 100 µM | [3] > 100 µM | [4] > 100 µM | [5] > 100 µM | [6] > 100 µM | [7] > 100 µM | [8] > 100 µM | [9] > 100 µM | [10] 61.4 µM | [11] > 100 µM | [12] > 100 µM | [59] > 100 µM | [13] > 100 µM | [14] > 100 µM | [15] > 100 µM | [16] 50.8 µM | [17] 67.6 µM | [18] > 100 µM | [19] > 100 µM | [20] > 100 µM | [21] > 100 µM | [23] > 100 µM | [24] 34.5 µM | [25] 37.9 µM | [26] > 100 µM | [27] > 100 µM | [28] > 100 µM | [29] > 100 µM | [30] > 100 µM | [31] > 100 µM | [32] 61.9 µM | [33] > 100 µM | [34] > 100 µM | [35] > 100 µM | [36] 14 µM | [37] 63.5 µM | [39] 27.2 µM | [40] > 100 µM | [41] > 100 µM | [42] > 100 µM | [43] 61.9 µM | [44] > 100 µM | [45] 28.1 µM | [46] > 100 µM | [47] > 100 µM | [48] > 100 µM | [49] > 100 µM | [50] > 100 µM | [51] > 100 µM | [52] > 100 µM | [53] > 100 µM | [54] > 100 µM | [55] 93.1 µM | [56] > 100 µM | [57] > 100 µM | [58] > 100 µM
